Assay results reported in patent US20130266636A1, “METHODS FOR BLOCKING CELL PROLIFERATION AND TREATING DISEASES AND CONDITIONS RESPONSIVE TO CELL GROWTH INHIBITION” (THE REGENTS OF THE UNIVERSITY OF CALIFORNIA, priority 2010, published 2013).

Key:
CRAF [1] = biological target: T1, CRAF (Homo sapiens, UniProt P04049); assay: Phospho-S338 CRAF immunoblot in XPA-1 cells; format: cell-based; set-up: total CRAF and total MEK of lysates from XPA-1 cells treated with PD0325901, Sorafenib, L-779450, PLX4720, KG5 or KG1; endogenous in cells; host or cells: XPA-1
Procedure: (§1) FIGS. 6 and 7 illustrate immunoblot analysis of CRAF immunoprecipitated from XPA-1 cells treated with KG5 and KG38.
FIG. 13 illustrates immunoblot analysis of phospho-5338 CRAF, phospho-MEK, total CRAF and total MEK of lysates from XPA-1 cells treated with PD0325901, Sorafenib, L-779450, PLX4720, KG5 or KG1.
(§2) Immunoprecipitation and Immunoblot Analysis Cells were lysed in either NP40 lysis buffer (150 mM NaCl, 50 mM Tris Base pH 7.4, 1% NP40) or RIPA buffer (50 mM Tris pH 7.4, 100 mM NaCl, 0.1% SDS) supplemented with complete protease inhibitor mixture (Roche), 50 mM NaF and 1 mM Na3VO4 and centrifuged at 13,000×g for 10 min at 4° C. Protein concentration was determined by BCA assay. […] of protein were immunoprecipitated with […] of anti-Flag (Sigma), anti-CRAF (BD Pharmingen), anti-Plk1 (Abcam), anti-γ-Tubulin (sigma) or anti-cenpF (Santa Cruz) antibodies overnight at 4° C. followed by capture with 25 μl of protein A/G (Pierce). Beads were washed five times, eluted in boiling Laemmli buffer, resolved on 10% SDS-PAGE and immunoblotting was performed with anti-Plk1 antibody (Abcam), anti-CRAF antibody (BD Pharmingen), anti-Aurora A (Abcam), anti-phospho-S338 CRAF (Cell Signaling), anti-phospho-T210 Plk1 or anti-phospho-T288 Aurora A (Cell signaling) diluted 1:1000. For immunoblot analysis, […] of protein was boiled in […]
Target sequence in this assay (P04049 whole entry): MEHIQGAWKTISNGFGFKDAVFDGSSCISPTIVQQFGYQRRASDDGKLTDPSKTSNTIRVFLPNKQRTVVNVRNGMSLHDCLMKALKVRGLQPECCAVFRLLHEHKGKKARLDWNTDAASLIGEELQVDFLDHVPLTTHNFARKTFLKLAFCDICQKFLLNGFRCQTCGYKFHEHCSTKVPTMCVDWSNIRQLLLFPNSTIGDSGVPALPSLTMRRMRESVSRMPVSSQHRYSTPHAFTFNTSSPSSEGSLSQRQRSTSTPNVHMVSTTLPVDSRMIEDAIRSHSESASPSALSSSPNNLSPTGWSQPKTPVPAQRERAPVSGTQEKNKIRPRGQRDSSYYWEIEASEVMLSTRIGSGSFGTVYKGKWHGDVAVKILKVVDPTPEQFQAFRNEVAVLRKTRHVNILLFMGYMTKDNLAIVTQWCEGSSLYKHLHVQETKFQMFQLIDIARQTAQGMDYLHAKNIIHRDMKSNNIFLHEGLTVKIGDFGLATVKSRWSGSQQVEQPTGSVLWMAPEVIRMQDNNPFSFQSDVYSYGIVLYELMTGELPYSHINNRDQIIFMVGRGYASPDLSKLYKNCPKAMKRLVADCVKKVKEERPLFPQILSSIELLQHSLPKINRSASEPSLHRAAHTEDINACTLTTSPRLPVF

[2] = system: human breast (T47D) carcinoma cell line; assay: Cell viability assay in T47D cells; format: cell-based
[3] = system: human breast (MDA-MB-231) carcinoma cell line; assay: Cell viability assay in MDA-MB-231 cells; format: cell-based
[4] = system: human lung (A549) carcinoma cell line; assay: Cell viability assay in A549 cells; format: cell-based
[5] = biological target: RAF dimerization (BRAF and CRAF) (Homo sapiens, UniProt P04049); assay: RAF dimerization, immunoblot of BRAF and CRAF immunoprecipitates from XPA-1 cells; format: cell-based; set-up: immunoblot analysis of BRAF and CRAF immunoprecipitates from XPA-1 cells; endogenous in cells; host or cells: XPA-1
Procedure: as §1
FIG. 14 illustrates immunoblot analysis of BRAF and CRAF immunoprecipitates from XPA-1 cells treated with PD0325901, Sorafenib, L-779450, PLX4720, KG5 or KG1.
as §2

CRAF [6] = biological target: T1, CRAF; details: 293H cells overexpressing catC, indicated amounts for 1 h; cited from earlier work
Target sequence in this assay (P04049 305-648 limits assumed, species assumed): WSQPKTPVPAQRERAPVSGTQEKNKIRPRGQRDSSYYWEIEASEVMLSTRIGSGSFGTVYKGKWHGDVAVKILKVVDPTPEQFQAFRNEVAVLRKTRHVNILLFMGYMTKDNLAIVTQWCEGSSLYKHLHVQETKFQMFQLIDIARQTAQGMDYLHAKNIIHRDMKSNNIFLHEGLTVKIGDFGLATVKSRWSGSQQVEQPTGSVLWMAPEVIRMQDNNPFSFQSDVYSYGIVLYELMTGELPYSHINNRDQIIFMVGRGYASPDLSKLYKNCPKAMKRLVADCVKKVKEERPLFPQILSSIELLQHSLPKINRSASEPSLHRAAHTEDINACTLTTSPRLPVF

A549 cells = assay: Cell proliferation assay in A549 cells; format: cell-based, human

Chain of RAF dimerization (BRAF and CRAF) (P04049 whole entry): as the sequence (P04049 whole entry) above

| Structure (SMILES) | serine 338 phosphorylation on CRAF (CRAF [1]) | cell viability ([2]; T47D) | potency relative to KG5 (cell viability EC50s) ([2]; T47D) | EC50 ([2]; T47D breast cancer cells) | cell viability ([3]; MDA-MB-231) | potency relative to KG5 (cell viability EC50s) ([3]; MDA-MB-231) | EC50 ([3]; MDA-MB-231 breast cancer cell viability assays) | cell viability ([4]; A549) | potency relative to KG5 (cell viability EC50s) ([4]; A549) | EC50 ([4]; A549 lung cancer cells) | RAF dimerization [5] | phosphorylation at S338 (pS338-CRAF immunoblot) (CRAF [6]) | cell proliferation (A549 cells) |
| --- | --- | --- | --- | --- | --- | --- | --- | --- | --- | --- | --- | --- | --- |
| CSc1nc(N)cc(Oc2ccc(-c3cnc(Nc4cccc(C(F)(F)F)c4)[nH]3)cc2)n1 [K38-B] | prevent | decrease cell viability | more potent than KG5 | approach picomolar (pM) EC50s | decrease cell viability | more potent than KG5 | approach picomolar (pM) EC50s | decrease cell viability | more potent than KG5 | approach picomolar (pM) EC50s | prevent RAF dimerization | – | – |
| CCCS(=O)(=O)Nc1ccc(F)c(C(=O)c2c[nH]c3ncc(Cl)cc23)c1F [PLX4720] | – | – | – | – | – | – | – | – | – | – | – | steadily increased | induce proliferation |
